Here are results for three compounds from patent publication US5149865A, “New p-oxibenzoic acid derivatives, process for their preparation and their use as drug” (Klinge Pharma GmbH, priority 1991, dated 1992).

The subject of test [1] is cholesterol biosynthesis in rat liver homogenate. Briefly: Determination of the inhibition of cholesterol synthesis in rat liver homogenate (14C acetate incorporation). It is filed as biochemical. The procedure:
2) Determination of the inhibition of cholesterol synthesis
3 g freshly prepared rat liver were homogenized in 6 ml ice-cooled buffer and centrifuged at 20000 * g for 20 minutes. The supernatant was separated off and used for the following determinations.
10 μl of the methanolic test substance solution was pipetted into a mixture of 110 μl supernatant and 300 μl incubation solution and incubated at 37° C. for 20 minutes. Thereafter, 10 μl of a ^14 C acetate solution was pipetted in and incubated for a further 30 minutes. Thereafter, 500 μl ethanolic KOH solution was added to the mixture, further incubated for 60 minutes at 75° C. and thereafter the reaction stopped by cooling in an ice bath. To enable a yield correction to be made for the subsequent extraction of the ^14 C cholesterol forming, ^3 H cholesterol (≈10^-3) was added by pipetting. In addition, 500 μl of an ethanolic solution of cold cholesterol was added. The cholesterol of the mixture was extracted twice with 1 ml petroleum ether, the extract concentrated by evaporating to dryness and taken up in 0.6 ml of an ethanol acetone mixture (1/1). The dissolved cholesterol was then precipitated by means of 1.4 ml of a digitonin solution (=7 mg). After 15 hours at 0° C. the precipitate was centrifuged off, dissolved with 0.5 ml methanol/glacial acetic acid (33/5) and diluted with two ml methanol. The radioactivity of the resulting cholesterol was then determined in […] scintillation liquid (Dimilume) by means of a scintillation counter.
Buffer: 6.8 g KH2 PO4, 0.6 g MgCl2, 0.37 g EDTA, 1.83 g nicotine amide, 51.35 g saccharose and 0.44 ml mercaptoethanol were dissolved in distilled water and diluted to 500 ml (PH =7.2)
Incubation solution: The following were dissolved, in each case individually:
8.6 mg […] with 1.3 ml buffer
10.2 mg NADP with 1.3 ml buffer
39.6 mg glucose-6-phosphate with 0.65 ml buffer
31.6 μl glucose-6-phosphate dehydrogenase (1000 U/0.9 ml) with 0.285 buffer
These solutions were not mixed until immediately prior to use.
^14 C-acetate: Solution: 250 μCi ^14 C-Na-acetate was dissolved by means of 1 ml distilled water, Solution 2: 512.5 mg Na-acetate was dissolved in 10 ml distilled water.
Before the test, 0.1 ml of solution 1 and 0.4 ml of solution 2 were mixed and then mixed with 2 ml distilled water.
Ethanolic KOH: 10 g were dissolved in 100 ml ethanol.
Method: R. E. Dugan et al. Archives Bioch. Biophys. 152 21, (1972)

Test [2] deals with total cholesterol (TC) and triglyceride (TG) level in the rat serum. Briefly: Determination of the hypolipidemic effect on rats (serum total cholesterol and triglycerides after oral administration). Particulars: 100 mg/kg oral, three administrations over 3 days, groups of 10 male Wistar rats. It is filed as in vivo, normolipemic male Wistar rats. The procedure: 1) Determination of the hypolipidemic effect on rats
The lipid-reducing effect of the test substances was examined on groups each of 10 normolipemic male Wistar rats weighing 200 to 220 g.
The tests were carried out after a 3-week retraining of the eating habits of the animals. The controlled feeding was carried out daily from 8 a.m. to 10 a.m. The test substances were administered at 11 a.m.
The test compounds were absorbed in an aqueous solution of 0.25% agar and 0.84% sodium chloride and administered orally. After three administrations over a period of 3 days blood was extracted from the animals. Cholesterol and triglycerides were determined in the serum with the aid of the "Cobas-Bio" centrifugal analyzer of Hoffmann-La Roche:
a) Cholesterol determination
CHOD-PAP method, enzymatic color test according to J. Siedel et al. (J. Clin. Chem. Clin. Biochem. 19, 838 (1981))
b) Triglyceride determination
Enzymatic cleavage of the triglycerides with the aid of special lipases with subsequent determination of the liberated glycerol according to T. O. Tiffany et al. (Clin. Chem. 20, 476 (1974))

For `CC(C)(C)c1ccc(C(O)CC(O)COc2ccc(C(=O)O)cc2)cc1` (single isomer, unassigned) [Diastereomer B, 1-(4'-tert.butylphenyl)-4-(4'-carboxyphenoxy)-butanediol-1,3], the “cholesterol biosynthesis in rat liver homogenate, % Control” value (“cholesterol biosynthesis … % Control” below) in test [1] (1*10^-5 Mole/l, 10 µM) is listed as 42 % Control. Besides, in test [2], the “Percentage change of total cholesterol (TC) level in the rat serum, X ± SD” value (from here on “Percentage change of total cholesterol … X ± SD”) was -66.9 ± 8.6 % Change and the “Percentage change of triglyceride (TG) level in the rat serum, X ± SD” value (from here on “Percentage change of triglyceride … X ± SD”) is listed as -29.7 ± 15.5 % Change.
As for `CCOC(=O)C(C)(C)Oc1ccc(Cl)cc1` [Clofibrate, reference compound], in test [2], the “Percentage change of total cholesterol … X ± SD” value was -14.5 + 12.0 % Change and the “Percentage change of triglyceride … X ± SD” value was -29.2 + 19.4 % Change.
Turning to `CC(C)(C)c1ccc(C(O)CC(O)COc2ccc(C(=O)O)cc2)cc1` (single isomer, unassigned) [Diastereomer A, 1-(4'-tert.butylphenyl)-4-(4'-carboxyphenoxy)-butanediol-1,3], the “cholesterol biosynthesis … % Control” value stood at 9 % Control in test [1] (1*10^-4 Mole/l, 100 µM); 36 % Control in test [1] (1*10^-5 Mole/l, 10 µM); 103 % Control in test [1] (1*10^-6 Mole/l, 1 µM); 2 % Control in test [1] (3*10^-4 Mole/l, 300 µM); 14 % Control in test [1] (3*10^-5 Mole/l, 30 µM); 97 % Control in test [1] (3*10^-6 Mole/l, 3 µM). Also, the “cholesterol biosynthesis … % Control” value in test [1] (3*10^-7 Mole/l, 0.3 µM) amounted to 122 % Control. Also, the “Percentage change of total cholesterol … X ± SD” value in test [2] is -39.1 ± 15.5 % Change. Also, the “Percentage change of triglyceride … X ± SD” value in test [2] is given as -26.4 ± 13.1 % Change.
